Results from patent US9133115B2 (ACHILLION PHARMACEUTICALS, INC., priority 2008, dated 2015).
pEC50: −log10 of the molar value.

Test system: HCV replicon
Assay: HCV replicon replication assay (NPT ELISA) in Huh-7 replicon-containing cells
Type: cell-based
Details: Hepatitis C virus, 72 h; HCV replicon in Huh-7 cells, three days incubation; read-out: EC50
How it was run: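 Replication was scored by capture ELISA of neomycin phosphotransferase, whose level tracks replicon replication, after graded compound treatment. The cells were Huh-7 harbouring an HCV-IRES/neo/EMCV-IRES/NS3–NS5B/3′-NTR replicon, plated at 6000-7500 cells/well and dosed 24 h later at 60-70% confluence; interferon alpha was the positive control.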

Compound	pEC50
C=C[C@@H]1C[C@]1(NC(=O)[C@@H]1C[C@@H](Oc2cc(-c3ccccc3)nc3cc(OC)ccc23)CN1C(=O)[C@@H](CC(=O)N1CCN(c2cnccn2)CC1)C(C)(C)C)C(=O)NS(=O)(=O)C1CC1 [Compound 196, (2S,4R)-1-((S)-2-tert-butyl-4-oxo-4-(4-(pyrazin-2-yl)piperazin-1-yl)butanoyl)-N-((1R,2S)-1-(cyclopropyl-sulfonylcarbamoyl)-2-vinylcyclopropyl)-4-(7-methoxy-2-phenylquinolin-4-yloxy)pyrrolidine-2-carboxamide]	> 6.00
C=C[C@@H]1C[C@]1(NC(=O)[C@@H]1C[C@@H](NC(=O)n2c3ccccc3c3ccccc32)CN1C(=O)[C@@H](CC(=O)N1CC2CC3CC(C2)CC1C3)C(C)(C)C)C(=O)NS(=O)(=O)C1CC1 [Compound 197]	> 6.00
C=C[C@@H]1C[C@]1(NC(=O)[C@@H]1C[C@@H](NC(=O)n2c3ccccc3c3ccccc32)CN1C(=O)[C@@H](CC(=O)N1CC2CCC1C2)C(C)(C)C)C(=O)NS(=O)(=O)C1CC1 (stereo partly drawn) [Compound 198, N-((3R,5S)-1-((2S)-2-(2-(2-aza-bicyclo[2.2.1]heptan-2-yl)-2-oxoethyl)-3,3-dimethylbutanoyl)-5-((1R)-1-(cyclo-propylsulfonyl-carbamoyl)-2-vinylcyclopropyl-carbamoyl)pyrrolidin-3-yl)-9H-carbazole-9-carboxamide]	> 6.00
C=CC1C[C@]1(NC(=O)[C@@H]1C[C@@H](NC(=O)c2cc(-c3ccccc3)nc3ccccc23)CN1C(=O)[C@@H](CC(=O)N1CCC(C(F)(F)F)CC1)C(C)(C)C)C(=O)NS(=O)(=O)C1CC1 (stereo partly drawn) [Compound 199, N-((3R,5S)-1-((S)-2-tert-butyl-4-oxo-4-(4-(trifluoromethyl)piper-idin-1-yl)butanoyl)-5-((1R,2S)-1-(cyclo-propylsulfonyl-carbamoyl)-2-vinyl-cyclopropyl-carbamoyl)pyrrolidin-3-yl)-2-phenylquinoline-4-carboxamide]	> 6.00
C=C[C@@H]1C[C@]1(NC(=O)[C@@H]1C[C@@H](NC(=O)c2cc(-c3ccccc3)nc3ccccc23)CN1C(=O)[C@@H](CC(=O)N1CCC(F)(F)CC1)C(C)(C)C)C(=O)NS(=O)(=O)C1CC1 [Compound 200, N-((3R,5S)-1-((S)-2-tert-butyl-4-(4,4-difluoropiperidin-1-yl)-4-oxobutanoyl)-5-((1R,2S)-1-(cyclopropylsulfonyl-carbamoyl)-2-vinylcyclopropyl-carbamoyl)pyrrolidin-3-yl)-2-phenylquinoline-4-carboxamide]	> 6.00
C=C[C@@H]1C[C@]1(NC(=O)[C@@H]1C[C@@H](NC(=O)c2cc(-c3ccccc3)nc3ccccc23)CN1C(=O)[C@@H](CC(=O)N1CCC(F)(F)C1)C(C)(C)C)C(=O)NS(=O)(=O)C1CC1 [Compound 201, N-((3R,5S)-1-((S)-2-tert-butyl-4-(3,3-difluoropyrrolidin-1-yl)-4-oxobutanoyl)-5-((1R,2S)-1-(cyclopropylsulfonyl-carbamoyl)-2-vinylcyclopropyl-carbamoyl)pyrrolidin-3-yl)-2-phenylquinoline-4-carboxamide]	> 6.00
C=C[C@@H]1C[C@]1(NC(=O)[C@@H]1C[C@@H](NC(=O)c2cc(-c3ccccc3)nc3ccccc23)CN1C(=O)[C@@H](CC(=O)N1CCCC(F)(F)C1)C(C)(C)C)C(=O)NS(=O)(=O)C1CC1 [Compound 202, N-((3R,5S)-1-((S)-2-tert-butyl-4-(3,3-difluoropiperidin-1-yl)-4-oxobutanoyl)-5-((1R,2S)-1-(cyclo-propylsulfonyl-carbamoyl)-2-vinyl-cyclopropyl-carbamoyl)pyrrolidin-3-yl)-2-phenylquinoline-4-carboxamide]	> 6.00
C=C[C@@H]1C[C@]1(NC(=O)[C@@H]1C[C@@H](NC(=O)c2cc(-c3ccccc3)nc3ccccc23)CN1C(=O)[C@@H](CC(=O)N1CCCCCC1)C(C)(C)C)C(=O)NS(=O)(=O)C1CC1 [Compound 203, N-((3R,5S)-1-((S)-4-(azepan-1-yl)-2-tert-butyl-4-oxobutanoyl)-5-((1R,2S)-1-(cyclo-propylsulfonyl-carbamoyl)-2-vinylcyclopropyl-carbamoyl)pyrrolidin-3-yl)-2-phenylquinoline-4-carboxamide]	> 6.00
C=C[C@@H]1C[C@]1(NC(=O)[C@@H]1C[C@@H](NC(=O)c2cc(-c3ccccc3)nc3ccccc23)CN1C(=O)[C@@H](CC(=O)N1CCCC(F)C1)C(C)(C)C)C(=O)NS(=O)(=O)C1CC1 (stereo partly drawn) [Compound 204, N-((3R,5S)-1-((2S)-2-tert-butyl-4-(3-fluoropiperidin-1-yl)-4-oxobutanoyl)-5-((1R,2S)-1-(cyclopropylsulfonyl-carbamoyl)-2-vinyl-cyclopropyl-carbamoyl)pyrrolidin-3-yl)-2-phenylquinoline-4-carboxamide]	> 6.00
C=C[C@@H]1C[C@]1(NC(=O)[C@@H]1C[C@@H](NC(=O)c2cc(-c3ccccc3)nc3ccccc23)CN1C(=O)[C@@H](CC(=O)N1CCC(F)CC1)C(C)(C)C)C(=O)NS(=O)(=O)C1CC1 [Compound 205, N-((3R,5S)-1-((S)-2-tert-butyl-4-(4-fluoropiperidin-1-yl)-4-oxobutanoyl)-5-((1R,2S)-1-(cyclopropylsulfonyl-carbamoyl)-2-vinyl-cyclopropyl-carbamoyl)pyrrolidin-3-yl)-2-phenylquinoline-4-carboxamide]	> 6.00
C=C[C@@H]1C[C@]1(NC(=O)[C@@H]1C[C@@H](Oc2cc(-c3ccccn3)nc3c(Cl)c(OC)ccc23)CN1C(=O)[C@@H](CC(=O)N1CCC(F)(F)C1)C(C)(C)C)C(=O)NS(=O)(=O)C1CC1 [Compound 206, (2S,4R)-1-((S)-2-tert-butyl-4-(3,3-difluoropyrrolidin-1-yl)-4-oxobutanoyl)-4-(8-chloro-7-methoxy-2-(pyridin-2-yl)quinolin-4-yloxy)-N-((1R)-1-(cyclopropylsulfonyl-carbamoyl)-2-vinylcyclopropyl)pyr-rolidine-2-carboxamide]	> 6.00
C=C[C@@H]1C[C@]1(NC(=O)[C@@H]1C[C@@H](Oc2cc(-c3ccccn3)nc3c(Cl)c(OC)ccc23)CN1C(=O)[C@@H](CC(=O)N1CCCC1C(F)(F)F)C(C)(C)C)C(=O)NS(=O)(=O)C1CC1 (stereo partly drawn) [Compound 207, (2S,4R)-1-((2S)-2-tert-butyl-4-oxo-4-(2-(trifluoromethyl)pyr-rolidin-1-yl)butanoyl)-4-(8-chloro-7-methoxy-2-(pyridin-2-yl)quinolin-4-yloxy)-N-((1R)-1-(cyclopropylsulfonyl-carbamoyl)-2-vinylcyclopropyl)pyr-rolidine-2-carboxamide]	> 6.00
C=C[C@@H]1C[C@]1(NC(=O)[C@@H]1C[C@@H](Oc2cc(-c3ccccn3)nc3c(Cl)c(OC)ccc23)CN1C(=O)[C@@H](CC(=O)N1CCC(C(F)(F)F)CC1)C(C)(C)C)C(=O)NS(=O)(=O)C1CC1 [Compound 208, (2S,4R)-1-((S)-2-tert-butyl-4-oxo-4-(4-(trifluoro-methyl)piperidin-1-yl)butanoyl)-4-(8-chloro-7-methoxy-2-(pyridin-2-yl)quinolin-4-yloxy)-N-((1R)-1-(cyclopropyl-sulfonylcarbamoyl)-2-vinylcyclo-propyl)pyrrolidine-2-carboxamide]	> 6.00
C=C[C@@H]1C[C@]1(NC(=O)[C@@H]1C[C@@H](Oc2cc(-c3ccccn3)nc3c(Cl)c(OC)ccc23)CN1C(=O)[C@@H](CC(=O)N1CCCC(F)C1)C(C)(C)C)C(=O)NS(=O)(=O)C1CC1 (stereo partly drawn) [Compound 209]	> 6.00
C=C[C@@H]1C[C@]1(NC(=O)[C@@H]1C[C@@H](Oc2cc(-c3ccccc3)nc3cc(OC)ccc23)CN1C(=O)[C@@H](CC(=O)N1CCCCC1)C(C)(C)C)C(=O)O [Compound 210, (1R)-1-((2S,4R)-1-((S)-2-tert-butyl-4-oxo-4-(piperidin-1-yl)butanoyl)-4-(7-methoxy-2-phenylquinolin-4-yloxy)pyrrolidine-2-carboxamido)-2-vinylcyclopropane-carboxylic acid]	< 5.00
C=C[C@@H]1C[C@]1(NC(=O)[C@@H]1C[C@@H](Oc2cc(-c3ccccc3)nc3cc(OC)ccc23)CN1C(=O)[C@@H](CC(=O)N1CCCC[C@H]1C(=O)Nc1nccs1)C(C)(C)C)C(=O)NS(=O)(=O)C1CC1 [Compound 211, (2S)-1-((3S)-3-((2S,4R)-2-((1R)-1-(cyclopropyl-sulfonylcarbamoyl)-2-vinylcyclopropyl-carbamoyl)-4-(7-methoxy-2-phenylquinolin-4-yloxy)pyrrolidine-1-carbonyl)-4,4-dimethylpentanoyl)-N-(thiazol-2-yl)piperidine-2-carboxamide]	> 6.00
C=C[C@@H]1C[C@]1(NC(=O)[C@@H]1C[C@@H](Oc2cc(-c3ccccc3)nc3cc(OC)ccc23)CN1C(=O)[C@@H](CC(=O)N1CCCC1C(=O)Nc1nccs1)C(C)(C)C)C(=O)NS(=O)(=O)C1CC1 (stereo partly drawn) [Compound 212, (2S,4R)-1-((S)-2-tert-butyl-4-oxo-4-((S)-2-(thiazol-2-ylcarbamoyl)pyr-rolidin-1-yl)butanoyl)-N-((1R)-1-(cyclo-propylsulfonyl-carbamoyl)-2-vinylcyclopropyl)-4-(7-methoxy-2-phenylquinolin-4-yloxy)pyrrolidine-2-carboxamide]	> 6.00
C=C[C@@H]1C[C@]1(NC(=O)[C@H]1C[C@@H](Oc2cc(-c3ccccc3)nc3cc(OC)ccc23)CN1C(=O)[C@@H](CC(=O)N1CCCCC1)C(C)(C)C)C(=O)NS(=O)(=O)C1CC1 [Compound 213, (2R,4R)-1-((S)-2-tert-butyl-4-oxo-4-(piperidin-1-yl)butanoyl)-N-((1R)-1-(cyclo-propylsulfonyl-carbamoyl)-2-vinyl-cyclopropyl)-4-(7-methoxy-2-phenylquinolin-4-yloxy)pyrrolidine-2-carboxamide]	> 6.00
